# Experimental data as given in EP4813381A1, “PHARMACEUTICAL USE OF GUAIANE SESQUITERPENE DERIVATIVE” (Nanjing University Of Chinese Medicine, priority 2023, dated 2025).
# Key:
# [1] = test system: acute kidney injury induced by folic acid; assay: Folic acid acute kidney injury model in mice: serum creatinine (Scr) and blood urea nitrogen (BUN); type: in vivo, C57BL/6 mice; settings: acute model (FA), 3 days
# [2] = test system: inflammatory cytokines (TNF, IL-6, IL-1); assay: LPS mouse sepsis model: Q-PCR of inflammatory factor mRNA in lung, liver and kidney; type: in vivo, C57BL/6 mice; settings: sepsis mice
# Excerpt: Gently pipette to mix the above reagents. The reaction conditions are as follows:
# Detailed information is as follows:
# [3] = test system: fibrosis-related factors (Acta2, Col1a1, Tgfb1); assay: CCl4 acute liver injury model in mice: Q-PCR of fibrosis-related factors in liver; type: in vivo, C57BL/6 mice; settings: liver mRNA
# Description: They were acclimated for 7 days before use in experiments. • Experimental Methods: Establishment of Acute Liver Injury Model in Mice and Group-Specific Drug Administration • Mice were randomly assigned to groups. One group was arbitrarily designated as the normal group, while the remaining groups served as model group, Compound 1 group, Hydrochloride 20 group, Fumarate 21 group, and Silibinin group, with 6 mice per group. Except for the normal group receiving 10 mL olive oil/kg via injection, all other mice received 0.5 mL CCl4 + 9.5 mL olive oil/kg body weight via intraperitoneal injection, maintaining a CCl4 to olive oil ratio of 1:19. Starting from day 1 of modeling, Compound 1, Hydrochloride 20, and Fumarate 21 were administered orally for 3 consecutive days. […] The blood was allowed to stand at room temperature for 2 hours, then centrifuged at 3000 rpm for 20 minutes. Serum was aspirated, aliquoted, and stored at -70 °C for future use. After blood collection, euthanize mice by cervical dislocation. Perform laparotomy to remove the liver. Rinse twice with pre-chilled PBS. Excise the left hepatic lobe tissue. […] Store remaining tissue at -70 °C for future use. • Serum AST and ALT Assay: Use 10 µL of each sample for testing. Determine mouse serum AST and ALT levels according to the operating manual. Measure absorbance at 510 nm using an enzyme-linked immunosorbent assay (ELISA) reader. Calculate sample concentration (U/L) based on the standard curve.
# Q-PCR Analysis: Tissue total RNA extraction, cDNA synthesis, and PCR amplification methods are identical to Example 4. Additional primer information is as follows:
# Data Statistics: All data are expressed as means ± standard error of the mean (S.E.M.). Differences were analyzed for significance using analysis of variance (ANOVA). For groups showing significant differences in ANOVA, one-way ANOVA followed by Dunnett's test was performed to compare intergroup differences.
# [4] = test system: renal injury markers (Ngal, Havcr1), inflammatory cytokines (TNF, IL-6, IL-1), fibrosis-related factors (α-Sma, Col1a1, Tgfb1); assay: Unilateral ureteral ligation (UUO) chronic kidney injury model in mice: Q-PCR of kidney tissue; type: in vivo, C57BL/6 mice; design: Tnf / Il1 / Il6: unit not given here; settings: kidney mRNA
# [5] = test system: chronic kidney injury induced by unilateral ureteral ligation; assay: Unilateral ureteral ligation (UUO) chronic kidney injury model in mice: Scr and BUN; type: in vivo, C57BL/6 mice; settings: serum, 14 days
# MDSCs = assay: Inhibition of MDSC chemotaxis (Transwell, Hepa1-6 tumor-conditioned medium); type: cell-based, mice; settings: 12 h treatment, 24 h Transwell
# Description: Hepa1-6 mouse hepatocellular carcinoma cells were uniformly seeded into 6-well plates. After cells reached confluence, supernatant was aspirated, and 1-1.5 mL fresh medium was added to each well. Following 24 h culture, supernatant was collected, centrifuged at 1600 rpm for 5 min, aspirated, and filtered through a 0.22 µm membrane to obtain tumor-conditioned medium for subsequent use. Euthanize mice by cervical dislocation and immerse in 75% ethanol solution for 5 min. Under sterile conditions, remove the tibia, cut both ends of the bone, and aspirate the bone marrow into a 1 mL syringe. Repeat flushing into a 15 mL centrifuge tube. Centrifuge at 1600 rpm for 5 min to collect bone marrow cells. Wash twice with 1×PBS. Resuspend cells in complete RPMI 1640 medium containing cytokines GM-CSF (10 ng/mL) and IL-4 (10 ng/mL) to stimulate differentiation into MDSCs. Count cells, adjust density to 1×10^6 cells/mL, and uniformly seed into 24-well plates at 300 µL per well. […] Centrifuge at 1600 rpm for 5 min, remove supernatant, resuspend cells in 300 µL fresh medium, and place into Transwell chambers. Add 600 µL normal medium (control group) or tumor-conditioned medium (model group) to the lower chamber. Co-culture for 24 h.
# [6] = test system: Human keratinocytes (Hacat); assay: Hyaluronic acid and hyaluronidase levels in UVB-irradiated human keratinocytes; type: cell-based; settings: UVB 90 mJ/cm^2, 24 h
# Description: Human keratinocytes (Hacat) were cultured routinely in DMEM medium containing 10% FBS within a 5% CO2 incubator.
# [7] = kidney mRNA (relative, Gapdh), oral gavage 0.1 mg/kg
# [8] = kidney mRNA (relative, Gapdh), oral gavage 1 mg/kg
# [9] = liver mRNA (relative, Gapdh), oral gavage 0.1 mg/kg
# [10] = liver mRNA (relative, Gapdh), oral gavage 1 mg/kg
# [11] = lung mRNA (relative, Gapdh), oral gavage 0.1 mg/kg
# [12] = lung mRNA (relative, Gapdh), oral gavage 1 mg/kg
smiles,measurement,setting,value
C=C1C(=O)O[C@@H]2[C@@H]3[C@]4(CC[C@@]3(C)O)C[C@]4(C)CC[C@@H]12 [compound 1],BUN,[1]; oral gavage 0.1 mg/kg,31.46±2.54
same,Scr,[1]; oral gavage 0.1 mg/kg,108.48±11.76
same,BUN,[1]; oral gavage 1 mg/kg,21.33±2.21
same,Scr,[1]; oral gavage 1 mg/kg,71.95±5.74
same,Il1,[2]; [7],7.01±0.33
same,Il6,[2]; [7],7.55±2.08
same,Tnf,[2]; [7],7.17±1.22
same,Il1,[2]; [8],3.05±0.58
same,Il6,[2]; [8],3.11±0.29
same,Tnf,[2]; [8],6.59±0.18
same,Il1,[2]; [9],11.32±2.66
same,Il6,[2]; [9],8.50±3.02
same,Tnf,[2]; [9],8.68 ± 2.12
same,Il1,[2]; [10],4.84±0.60
same,Il6,[2]; [10],5.10±0.82
same,Tnf,[2]; [10],7.01±0.92
same,Il1,[2]; [11],15.29±0.88
same,Il6,[2]; [11],19.17±0.51
same,Tnf,[2]; [11],8.58 ± 0.85
same,Il1,[2]; [12],7.89±1.44
same,Il6,[2]; [12],11.67±1.84
same,Tnf,[2]; [12],7.99±1.36
same,Acta2,[3]; oral 0.1 mg/kg,3.82±0.88
same,Col1a1,[3]; oral 0.1 mg/kg,2.28±0.80
same,Tgfb1,[3]; oral 0.1 mg/kg,1.39±0.58
same,Acta2,[3]; oral 1 mg/kg,2.34±0.16
same,Col1a1,[3]; oral 1 mg/kg,1.40±0.31
same,Tgfb1,[3]; oral 1 mg/kg,1.08±0.21
same,Col1a1,[4]; oral 0.1 mg/kg,16.09±3.57
same,Havcr1,[4]; oral 0.1 mg/kg,12.56±1.95
same,Il1,[4]; oral 0.1 mg/kg,6.05±0.49
same,Il6,[4]; oral 0.1 mg/kg,16.52±1.69
same,Ngal,[4]; oral 0.1 mg/kg,37.82±4.85
same,Tgfb1,[4]; oral 0.1 mg/kg,2.04±0.24
same,Tnf,[4]; oral 0.1 mg/kg,6.41±1.46
same,α-Sma,[4]; oral 0.1 mg/kg,2.32±0.54
same,Col1a1,[4]; oral 1 mg/kg,9.45±1.03
same,Havcr1,[4]; oral 1 mg/kg,8.54±1.38
same,Il1,[4]; oral 1 mg/kg,3.99±0.31
same,Il6,[4]; oral 1 mg/kg,6.50±1.51
same,Ngal,[4]; oral 1 mg/kg,21.66±6.00
same,Tgfb1,[4]; oral 1 mg/kg,1.55±0.19
same,Tnf,[4]; oral 1 mg/kg,6.59±1.19
same,α-Sma,[4]; oral 1 mg/kg,1.54±0.12
same,BUN,[5]; oral gavage 0.1 mg/kg,18.41±1.82
same,Scr,[5]; oral gavage 0.1 mg/kg,176.35±17.11
same,BUN,[5]; oral gavage 1 mg/kg,11.01±1.54
same,Scr,[5]; oral gavage 1 mg/kg,104.65±16.26
same,Suppression Rate (%),MDSCs; 1 µM,42.3%
same,Suppression Rate (%),MDSCs; 10 µM,83.3%
same,Hyaluronic acid,[6]; 0.01 µM,8.73 ± 1.62 ng/mL
same,Hyaluronidase,[6]; 0.01 µM,124.41 ± 16.49 ng/mL
same,Hyaluronic acid,[6]; 0.1 µM,14.17 ± 1.30 ng/mL
same,Hyaluronidase,[6]; 0.1 µM,88.07 ± 10.17 ng/mL
same,Hyaluronic acid,[6]; 1 µM,19.51 ± 1.87 ng/mL
same,Hyaluronidase,[6]; 1 µM,56.03 ± 5.53 ng/mL
same,Hyaluronic acid,[6]; 10 µM,24.82 ± 1.13 ng/mL
same,Hyaluronidase,[6]; 10 µM,37.73 ± 11.49 ng/mL
CN(C)C[C@@H]1C(=O)O[C@H]2[C@H]1CC[C@@]1(C)C[C@]13CC[C@@](C)(O)[C@H]23 [compound 20],BUN,[1]; oral gavage 1 mg/kg,16.74±1.42
same,Scr,[1]; oral gavage 1 mg/kg,64.94±9.68
same,α-Sma,"[4]; oral 1 mg/kg, 1 mg/kg",1.26±0.18
same,BUN,[5]; oral gavage 1 mg/kg,9.39±0.92
same,Scr,[5]; oral gavage 1 mg/kg,64.50±7.13
